What follows are compounds tested on Pyricularia oryzae (assay: Fungicidal activity against Magnaporthe oryzae in 7 days old young rice seedlings compound sprayed 1 day after inoculation assessed as efficacy against blast disease measured as lesion level at 50 ppm measured after 7 days of inoculation).
Format: functional

| Compound | Efficacy [%] |
| --- | --- |
| C[C@H](NC(=O)C1(C)C(C)(C)C1(Cl)Cl)c1ccc(Br)cc1 (stereo in doubt; 17(Sl)) | <20 |
| CC[C@]1(C(=O)NC(C)c2ccc(Cl)cc2)[C@H](C)C1(Cl)Cl (mixture of isomers) [CARPROPAMID] | 0 |
| CC[C@]1(C(=O)N[C@H](C)c2ccc(Cl)cc2)[C@H](C)C1(Cl)Cl [trans-Carpropamid] | 0 |
| CC(NC(=O)C1(C)C(C)(C)C1(Cl)Cl)c1ccc(Br)cc1 (stereo not drawn) | 0 |
| C[C@@H](NC(=O)C1(C)C(C)(C)C1(Cl)Cl)c1ccc(Br)cc1 (stereo in doubt; 17(Rl)) | <5 |
| C[C@@H](NC(=O)C1(C)C(C)(C)C1(Cl)Cl)c1ccc(Br)cc1 (stereo in doubt; 17(Rd)) | 0 |

Each compound was assayed on Pyricularia oryzae (assay: Fungicidal activity against Magnaporthe oryzae in 7 days old young rice seedlings compound sprayed 1 day after inoculation assessed as efficacy against blast disease measured as lesion level at 200 ppm measured after 7 days of inoculation).
Format: functional

| Compound | Efficacy [%] |
| --- | --- |
| CC1(C)C(Cl)(Cl)C1(C)C(=O)O (stereo not drawn) | <20 |
| CC(NC(=O)C1(C)C(C)(C)C1(Cl)Cl)c1ccccc1 (stereo not drawn) | <5 |
| CCOC(=O)C1C(C)(C)C1(Cl)Cl (stereo not drawn) | <5 |
| CC1(C)C(COC(=O)Nc2ccccc2)C1(Cl)Cl (stereo not drawn) | <5 |
| CC1(C)C(C#N)C1(Cl)Cl (stereo not drawn) | <30 |
| CC1(C)C(C(=O)O)C1(Cl)Cl (stereo not drawn) | <5 |
| CC[C@]1(C(=O)NC(C)c2ccc(Cl)cc2)[C@H](C)C1(Cl)Cl (stereo partly drawn) [CARPROPAMID] | 0 |
| CC(NC(=O)C1(C)C(C)(C)C1(Cl)Cl)c1ccc(Br)cc1 (stereo not drawn) | 0 |
| CC(NC(=O)C1(C(C)C)CC1(Cl)Cl)c1ccc(Cl)cc1 (stereo not drawn) | 0 |
| CC1(C)C(COC(=O)c2ccccc2)C1(Cl)Cl (stereo not drawn) | <5 |
| CC(NC(=O)C1(C)C(C)(C)C1(Cl)Cl)c1ccc(Cl)cc1 (stereo not drawn) | 0 |
| CC1(C)C(C(=O)Oc2ccccc2)C1(Cl)Cl (stereo not drawn) | <20 |
| CC1(C)C(CO)C1(Cl)Cl (stereo not drawn) | <5 |
| CC1(C)C(C(=O)Nc2ccccc2)C1(Cl)Cl (stereo not drawn) | >40 |
| CCC1(CC)C(C(=O)O)C1(Cl)Cl (stereo not drawn) | <30 |
| CNC(=O)C1C(C)(C)C1(Cl)Cl (stereo not drawn) | <40 |
| CC1(C)C(C(N)=O)C1(Cl)Cl (stereo not drawn) | <20 |

Reference: ChEMBL document CHEMBL3044822, “Carpropamid, a New Fungicide for Rice Blast Control” (1998)
